Laboratory results taken from patent US20150337013A1, “NOVEL ANTIBACTERIAL AGENTS FOR THE TREATMENT OF GRAM POSITIVE INFECTIONS” (priority 2008, published 2015).
“And” between values parts separate entries of the source, which are not always exact repeats. Identical values can stand only once. Like-named read-outs stand apart in the source and are kept apart here.

Columns and labels:
[1] = test system: Staphylococcus aureus SAU.399 (ATCC 43300), Methicillin and Oxacillin Resistant; format: cell-based
Outline: (§1)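 CLSI M7-A7 broth microdilution, modified: MHB + 50 mg/L Ca, 5×10^5 bacteria/well, 2-fold dilutions, DMSO ≤1%, 18-20 h, 37° C, 200 rpm. Growth = visible turbidity or OD600 ≥0.1; MIC = lowest conc. without visible turbidity, μg/mL.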

[2] = test system: Enterococcus faecium EFM.384, Daptomycin resistant mutant (14-A); format: cell-based; details: MHBc with 50 mg/L calcium, 18-20 hours at 37° C.
Outline: as §1

[3] = test system: Staphylococcus aureus SAU.42 (ATCC 29213); format: cell-based
Outline: as §1

[4] = test system: Enterococcus faecium EFM.14 (ATCC 6569); format: cell-based
Outline: as §1

[5] = test system: Enterococcus faecalis EFS.201 (ATCC 49452); format: cell-based
Outline: as §1

[6] = test system: Enterococcus faecalis EFS.312, Daptomycin resistant mutant (EFA); format: cell-based; details: MHBc with 50 mg/L calcium, 18-20 hours at 37° C.
Outline: as §1

[7] = test system: Staphylococcus aureus SAU.278, Daptomycin resistant mutant (D10); format: cell-based; details: MHBc with 50 mg/L calcium, 18-20 hours at 37° C.
Outline: as §1

[8] = test system: Clostridium difficile
[9] = MHBc with 50 mg/L calcium, 18-20 hours at 37° C.

SMILES	Sa399 MIC [1, 9] [µg/mL]	Efm384 MIC [2] [µg/mL]	Sa42 MIC [3, 9] [µg/mL]	Efm14 MIC [4, 9]	Efs201 MIC [5, 9] [µg/mL]	Efs312 MIC [6]	Sa278 MIC [7] [µg/mL]	C. diff MIC90 [8] [µg/mL]	Sa399 MIC ([1]; ATCC 43300) [µg/mL]	Sa42 MIC ([3]; ATCC 29213) [µg/mL]	Efm14 MIC ([4]; ATCC 6569) [µg/mL]	Efs201 MIC ([5]; ATCC 49452) [µg/mL]
CCCCCC1CCC(NC(=O)N[C@@H](Cc2c[nH]c3ccccc23)C(=O)N[C@H](CC(N)=O)C(=O)N[C@@H](CC(=O)O)C(=O)N[C@@H]2C(=O)NCC(=O)N[C@@H](CCCN)C(=O)N[C@@H](CC(=O)O)C(=O)N[C@H](C)C(=O)N[C@@H](CC(=O)O)C(=O)NCC(=O)N[C@H](CO)C(=O)N[C@@H]([C@H](C)CC(=O)O)C(=O)N[C@@H](CC(=O)c3ccccc3N)C(=O)O[C@@H]2C)CC1 (some centres unmarked) [Compound 17]	0.25	16	0.25	1 µg/mL	1	>32 µg/mL	0.25	1				
CCCCCCCCCCCCCCC(=O)N[C@@H](Cc1c[nH]c2ccccc12)C(=O)N[C@H](CC(N)=O)C(=O)N[C@@H](CC(=O)O)C(=O)N[C@@H]1C(=O)NCC(=O)N[C@@H](CCCN)C(=O)N[C@@H](CC(=O)O)C(=O)N[C@H](C)C(=O)N[C@@H](CC(=O)O)C(=O)NCC(=O)N[C@H](CO)C(=O)N[C@@H]([C@H](C)CC(=O)O)C(=O)N[C@@H](CC(=O)c2ccccc2N)C(=O)O[C@@H]1C [Compound 7]		4				4 µg/mL	2	16	0.5	1	0.5	0.25
CC(C)Cc1ccc(C(C)C(=O)N[C@@H](Cc2c[nH]c3ccccc23)C(=O)N[C@H](CC(N)=O)C(=O)N[C@@H](CC(=O)O)C(=O)N[C@@H]2C(=O)NCC(=O)N[C@@H](CCCN)C(=O)N[C@@H](CC(=O)O)C(=O)N[C@H](C)C(=O)N[C@@H](CC(=O)O)C(=O)NCC(=O)N[C@H](CO)C(=O)N[C@@H]([C@H](C)CC(=O)O)C(=O)N[C@@H](CC(=O)c3ccccc3N)C(=O)O[C@@H]2C)cc1 (single isomer, unassigned) [45 isomer I]		>32				>32 µg/mL	>32	32	8	8	>32	>32
CCCCCCCc1csc(C(=O)N[C@@H](Cc2c[nH]c3ccccc23)C(=O)N[C@H](CC(N)=O)C(=O)N[C@@H](CC(=O)O)C(=O)N[C@@H]2C(=O)NCC(=O)N[C@@H](CCCN)C(=O)N[C@@H](CC(=O)O)C(=O)N[C@H](C)C(=O)N[C@@H](CC(=O)O)C(=O)NCC(=O)N[C@H](CO)C(=O)N[C@@H]([C@H](C)CC(=O)O)C(=O)N[C@@H](CC(=O)c3ccccc3N)C(=O)O[C@@H]2C)c1 [Compound 43, N-(4-heptylthiophene-2-carbonyl)-L-tryptophyl-D-asparaginyl-L-α-aspartyl-L-threonylglycyl-L-ornithyl-L-α-aspartyl-D-alanyl-L-α-aspartylglycyl-D-seryl-(3R)-3-methyl-L-α-glutamyl-(αS)-α,2-diamino-γ-oxobenzenebutanoic acid (13→4)-lactone]		16				32 µg/mL	1	2	0.5	0.125	1	1
CC(C)Cc1ccc(C(C)C(=O)N[C@@H](Cc2c[nH]c3ccccc23)C(=O)N[C@H](CC(N)=O)C(=O)N[C@@H](CC(=O)O)C(=O)N[C@@H]2C(=O)NCC(=O)N[C@@H](CCCN)C(=O)N[C@@H](CC(=O)O)C(=O)N[C@H](C)C(=O)N[C@@H](CC(=O)O)C(=O)NCC(=O)N[C@H](CO)C(=O)N[C@@H]([C@H](C)CC(=O)O)C(=O)N[C@@H](CC(=O)c3ccccc3N)C(=O)O[C@@H]2C)cc1 (single isomer, unassigned) [45 isomer II]		>32				>32 µg/mL	>32	8	4	4	32	32
C[C@H](CC(=O)O)[C@@H]1NC(=O)[C@@H](CO)NC(=O)CNC(=O)[C@H](CC(=O)O)NC(=O)[C@@H](C)NC(=O)[C@H](CC(=O)O)NC(=O)[C@H](CCCN)NC(=O)CNC(=O)[C@@H](NC(=O)[C@H](CC(=O)O)NC(=O)[C@@H](CC(N)=O)NC(=O)[C@H](Cc2c[nH]c3ccccc23)NC(=O)CCCCCC2CCCCC2)[C@@H](C)OC(=O)[C@H](CC(=O)c2ccccc2N)NC1=O [Compound 26]		16				>32 µg/mL	2	2	0.5	1	2	1
CCCCCCCCCCCCCC(=O)N[C@@H](Cc1c[nH]c2ccccc12)C(=O)N[C@H](CC(N)=O)C(=O)N[C@@H](CC(=O)O)C(=O)N[C@@H]1C(=O)NCC(=O)N[C@@H](CCCN)C(=O)N[C@@H](CC(=O)O)C(=O)N[C@H](C)C(=O)N[C@@H](CC(=O)O)C(=O)NCC(=O)N[C@H](CO)C(=O)N[C@@H]([C@H](C)CC(=O)O)C(=O)N[C@@H](CC(=O)c2ccccc2N)C(=O)O[C@@H]1C [Compound 6]		4				4 µg/mL	2	16	0.25	1	0.5	0.25
CCCCCCCCOc1ccc(C(=O)N[C@@H](Cc2c[nH]c3ccccc23)C(=O)N[C@H](CC(N)=O)C(=O)N[C@@H](CC(=O)O)C(=O)N[C@@H]2C(=O)NCC(=O)N[C@@H](CCCN)C(=O)N[C@@H](CC(=O)O)C(=O)N[C@H](C)C(=O)N[C@@H](CC(=O)O)C(=O)NCC(=O)N[C@H](CO)C(=O)N[C@@H]([C@H](C)CC(=O)O)C(=O)N[C@@H](CC(=O)c3ccccc3N)C(=O)O[C@@H]2C)cc1 [Compound 36]	0.25	4	0.25	0.5 µg/mL	0.5	4 µg/mL	1.00	0.5				
C[C@H](CC(=O)O)[C@@H]1NC(=O)[C@@H](CO)NC(=O)CNC(=O)[C@H](CC(=O)O)NC(=O)[C@@H](C)NC(=O)[C@H](CC(=O)O)NC(=O)[C@H](CCCN)NC(=O)CNC(=O)[C@@H](NC(=O)[C@H](CC(=O)O)NC(=O)[C@@H](CC(N)=O)NC(=O)[C@H](Cc2c[nH]c3ccccc23)NC(=O)c2ccc(-c3ccc(-c4ccccc4)cc3)s2)[C@@H](C)OC(=O)[C@H](CC(=O)c2ccccc2N)NC1=O [Compound 52, N-[5-(biphenyl-4-yl)thiophene-2-carbonyl]-L-tryptophyl-D-asparaginyl-L-α-aspartyl-L-threonylglycyl-L-ornithyl-L-α-aspartyl-D-alanyl-L-α-aspartylglycyl-D-seryl-(3R)-3-methyl-L-α-glutamyl-(αS)-α,2-diamino-γ-oxobenzenebutanoic acid (13→4)-lactone]	0.25	4	0.25	1 µg/mL and 0.5 µg/mL	0.5	8 µg/mL and 16 µg/mL	0.5	2				
CCCC1CCC(c2ccc(C(=O)N[C@@H](Cc3c[nH]c4ccccc34)C(=O)N[C@H](CC(N)=O)C(=O)N[C@@H](CC(=O)O)C(=O)N[C@@H]3C(=O)NCC(=O)N[C@@H](CCCN)C(=O)N[C@@H](CC(=O)O)C(=O)N[C@H](C)C(=O)N[C@@H](CC(=O)O)C(=O)NCC(=O)N[C@H](CO)C(=O)N[C@@H]([C@H](C)CC(=O)O)C(=O)N[C@@H](CC(=O)c4ccccc4N)C(=O)O[C@@H]3C)cc2)CC1 (single isomer, unassigned) [53 isomer II]		4				4 µg/mL	2	1	1	0.5	1	1
